{"source": "patent US20230026360A1", "about": "“DETECTION OF MOLECULAR INTERACTIONS” (Orionis Biosciences, Inc., priority 2019, published 2023)", "type_in_all_cases": "cell-based", "key": {"[1]": {"tested_on": "CRBN and human ORF(eome) cDNA library targets", "test": "Inverse MAPPIT cell microarray ORF cDNA library screen with CRBN bait", "conditions": "HEK293T", "protocol": "In order to identify ligand-induced CRBN substrates, or neosubstrates, a MAPPIT cell microarray screen was performed using the procedure described in Lievens, et al. “Proteome-scale binary interactomics in human cells.” Molecular & Cellular Proteomics 15.12 (2016): 3624-3639. In brief, HEK293T cells were transfected with a CRBN bait expression plasmid encoding a gp130-CRBN fusion construct. These transfected cells were then added to microarray screening plates containing a MAPPIT chimeric membrane receptor fusion expression plasmid collection covering over 15,000 ORFs. Each spot in the microarray contained a different chimeric receptor-ORF fusion expression plasmid, as well as a STAT3-responsive fluorescence protein-encoding reporter plasmid. Gp130-CRBN bait transfected cells landing and attaching on these spots therefore become transfected as well with the receptor-ORF prey plasmid and the reporter plasmid, resulting in a different CRBN-ORF combination being tested in the cells on every different microarray spot. Twenty-four hours after transfection cells were differentially stimulated with erythropoietin with and without the CRBN ligand CC-220 (1 μM final concentration), and reporter signal (GFP-like fluorescence reporter) was read out 48 hours later."}, "CRBN-IKZF2 interaction": {"molecular_target": "CRBN-IKZF2 interaction (Homo sapiens, UniProt Q96SW2)", "sequence (Q96SW2 whole entry, the tested form may be a part)": "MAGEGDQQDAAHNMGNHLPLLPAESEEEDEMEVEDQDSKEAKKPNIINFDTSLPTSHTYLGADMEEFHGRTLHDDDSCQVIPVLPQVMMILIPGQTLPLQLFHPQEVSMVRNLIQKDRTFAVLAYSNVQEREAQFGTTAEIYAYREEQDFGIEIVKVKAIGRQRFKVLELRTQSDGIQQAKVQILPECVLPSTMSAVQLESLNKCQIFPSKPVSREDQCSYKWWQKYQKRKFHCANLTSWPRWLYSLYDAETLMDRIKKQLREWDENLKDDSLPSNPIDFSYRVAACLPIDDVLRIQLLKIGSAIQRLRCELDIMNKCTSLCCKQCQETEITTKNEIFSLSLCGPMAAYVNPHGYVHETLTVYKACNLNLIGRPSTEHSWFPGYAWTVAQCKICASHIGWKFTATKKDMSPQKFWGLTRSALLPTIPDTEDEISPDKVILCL", "sequence (Q9UKS7 whole entry partner, the tested form may be a part)": "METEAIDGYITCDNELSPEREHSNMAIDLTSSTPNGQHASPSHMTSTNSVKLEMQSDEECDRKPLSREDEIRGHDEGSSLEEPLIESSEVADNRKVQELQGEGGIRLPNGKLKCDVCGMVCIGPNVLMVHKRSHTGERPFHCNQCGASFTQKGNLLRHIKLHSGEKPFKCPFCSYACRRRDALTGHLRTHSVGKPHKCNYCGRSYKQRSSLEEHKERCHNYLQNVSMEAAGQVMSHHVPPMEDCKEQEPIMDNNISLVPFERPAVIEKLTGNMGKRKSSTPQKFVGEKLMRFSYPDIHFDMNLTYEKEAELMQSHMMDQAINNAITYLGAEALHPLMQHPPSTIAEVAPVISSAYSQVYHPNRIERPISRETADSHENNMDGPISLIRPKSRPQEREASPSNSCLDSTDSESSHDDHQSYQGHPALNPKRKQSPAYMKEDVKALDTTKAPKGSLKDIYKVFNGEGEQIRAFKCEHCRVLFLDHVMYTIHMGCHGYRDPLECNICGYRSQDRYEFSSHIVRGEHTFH", "test": "MAPPIT inverse assay, CRBN gp130 fusion + IKZF2 receptor fusion", "parameters": "expressed in transfected cells; host or cells: HEK293T", "conditions": "inverse configuration; HEK293T cells; EPO; dose-response", "text": "(§1) The traditional MAPPIT assay has been used to monitor protein-protein interactions. A bait protein (protein A) is expressed as a fusion protein in which it is genetically fused to an engineered intracellular receptor domain of the leptin receptor, which is itself fused to the extracellular domain of the erythropoietin (Epo) receptor. Binding of Epo ligand to the Epo receptor component results in activation of receptor-associated intracellular JAK2. However, activated JAK2 cannot activate the leptin receptor to trigger STAT3 binding and its phosphorylation because its tyrosine residues, normally phosphorylated by activated JAK2, have been mutated. […] Activation of STAT3 can be monitored by introduction of a STAT3-responsive reporter gene, including a luciferase-encoding gene or a gene encoding a fluorescent marker such as GFP or some other type of Fluorescent Protein (EGFP etc.). […]\n(§2) Full size proteins were fused for each of the target/prey proteins tested, except in the case of IKZF1 where isoform 7 was used. […] Luciferase activity was measured 24 hours after test compound treatment using the Luciferase Assay System kit (PROMEGA, Madison, Wis.) with an Ensight plate reader (PERKIN ELMER LIFE SCIENCES, Waltham, Mass.). […]"}, "CRBN-SALL4 interaction [2]": {"molecular_target": "T1, CRBN-SALL4 interaction (Homo sapiens, UniProt Q96SW2)", "test": "MAPPIT inverse assay, CRBN gp130 fusion + SALL4 receptor fusion", "parameters": "expressed in transfected cells; host or cells: HEK293T", "conditions": "inverse configuration; HEK293T cells; EPO; dose-response", "text": "as §1, §2"}, "[3]": {"molecular_target": "CRBN-CSNK1A (CK1a) interaction (Homo sapiens, UniProt Q96SW2)", "sequence (Q96SW2 whole entry, the tested form may be a part)": "as the sequence (Q96SW2 whole entry, the tested form may be a part) above", "sequence (P48729 whole entry partner, the tested form may be a part)": "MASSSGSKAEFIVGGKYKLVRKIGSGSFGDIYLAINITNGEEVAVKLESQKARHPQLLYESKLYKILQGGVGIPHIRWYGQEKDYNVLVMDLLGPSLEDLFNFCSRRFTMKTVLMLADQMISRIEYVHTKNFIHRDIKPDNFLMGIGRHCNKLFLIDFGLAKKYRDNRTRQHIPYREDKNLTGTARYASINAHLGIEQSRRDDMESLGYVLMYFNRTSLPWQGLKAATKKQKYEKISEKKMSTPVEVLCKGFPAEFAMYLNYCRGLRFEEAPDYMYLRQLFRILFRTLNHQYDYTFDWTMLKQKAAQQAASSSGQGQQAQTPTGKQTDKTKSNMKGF", "test": "MAPPIT inverse assay, CRBN gp130 fusion + CSNK1A1 receptor fusion", "parameters": "expressed in transfected cells; host or cells: HEK293T", "conditions": "inverse configuration; HEK293T cells; EPO; dose-response", "text": "as §1, §2"}, "CRBN-ZFP91 interaction [4]": {"molecular_target": "T2, CRBN-ZFP91 interaction (Homo sapiens, UniProt Q96SW2)", "test": "MAPPIT inverse assay, CRBN gp130 fusion + ZFP91 receptor fusion", "parameters": "expressed in transfected cells; host or cells: HEK293T", "conditions": "inverse configuration; HEK293T cells; EPO; dose-response", "text": "as §1, §2"}, "CRBN-SALL4 interaction [5]": {"molecular_target": "T1, CRBN-SALL4 interaction", "test": "MAPPIT forward assay, CRBN receptor fusion + SALL4 gp130 fusion", "parameters": "MAPPIT chimeric receptor (EPO receptor extracellular domain + signaling-deficient leptin receptor part); expressed in transfected cells; host or cells: HEK293T", "conditions": "forward configuration; HEK293T cells; EPO; dose-response", "text": "as §1, §2"}, "CRBN-ZFP91 interaction [6]": {"molecular_target": "T2, CRBN-ZFP91 interaction", "test": "MAPPIT forward assay, CRBN receptor fusion + ZFP91 gp130 fusion", "parameters": "MAPPIT chimeric receptor (EPO receptor extracellular domain + signaling-deficient leptin receptor part); expressed in transfected cells; host or cells: HEK293T", "conditions": "forward configuration; HEK293T cells; EPO; dose-response", "text": "as §1, §2"}, "CRBN-IKZF3 interaction": {"molecular_target": "CRBN-IKZF3 interaction (Homo sapiens, UniProt Q96SW2)", "sequence (Q96SW2 whole entry, the tested form may be a part)": "as the sequence (Q96SW2 whole entry, the tested form may be a part) above", "sequence (Q9UKT9 whole entry partner, the tested form may be a part)": "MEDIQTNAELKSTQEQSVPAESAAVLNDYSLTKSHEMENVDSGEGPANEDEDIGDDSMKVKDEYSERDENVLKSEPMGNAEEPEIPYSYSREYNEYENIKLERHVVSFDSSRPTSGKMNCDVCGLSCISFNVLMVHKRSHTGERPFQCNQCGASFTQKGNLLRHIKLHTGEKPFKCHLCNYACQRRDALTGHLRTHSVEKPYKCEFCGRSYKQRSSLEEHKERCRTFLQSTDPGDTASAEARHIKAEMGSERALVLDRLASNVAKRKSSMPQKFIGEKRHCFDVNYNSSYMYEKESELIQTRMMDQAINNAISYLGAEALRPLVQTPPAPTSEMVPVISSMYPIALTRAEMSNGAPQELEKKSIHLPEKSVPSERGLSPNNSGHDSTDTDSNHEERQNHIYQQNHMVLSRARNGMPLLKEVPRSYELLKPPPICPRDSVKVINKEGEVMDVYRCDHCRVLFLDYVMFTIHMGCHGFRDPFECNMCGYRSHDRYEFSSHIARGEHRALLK", "test": "MAPPIT inverse assay, CRBN gp130 fusion + IKZF3 receptor fusion", "parameters": "expressed in transfected cells; host or cells: HEK293T", "conditions": "inverse configuration; HEK293T cells; EPO; dose-response", "text": "as §1, §2"}, "CRBN-IKZF1 interaction": {"molecular_target": "T3, CRBN-IKZF1 interaction (Homo sapiens, UniProt Q96SW2)", "T3 construct": "expressed in transfected cells; host or cells: HEK293T", "T3 sequence (Q96SW2 whole entry, the tested form may be a part, canonical isoform)": "as the sequence (Q96SW2 whole entry, the tested form may be a part) above", "T3 sequence (Q13422 1-477 isoform Q13422-7 partner)": "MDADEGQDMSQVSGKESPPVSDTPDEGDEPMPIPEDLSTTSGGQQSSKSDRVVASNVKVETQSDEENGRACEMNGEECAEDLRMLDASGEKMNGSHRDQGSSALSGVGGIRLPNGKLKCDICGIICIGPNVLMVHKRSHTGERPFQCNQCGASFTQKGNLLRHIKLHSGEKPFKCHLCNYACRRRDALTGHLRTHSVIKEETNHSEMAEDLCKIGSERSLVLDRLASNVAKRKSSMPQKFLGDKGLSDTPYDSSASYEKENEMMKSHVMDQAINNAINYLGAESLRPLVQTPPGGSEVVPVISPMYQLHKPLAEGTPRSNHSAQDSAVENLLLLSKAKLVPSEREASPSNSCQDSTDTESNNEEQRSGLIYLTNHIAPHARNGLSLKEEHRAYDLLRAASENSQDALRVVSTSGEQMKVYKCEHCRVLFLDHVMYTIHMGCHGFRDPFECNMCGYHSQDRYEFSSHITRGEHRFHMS", "test": "MAPPIT forward assay, CRBN receptor fusion + IKZF1 gp130 fusion", "conditions": "forward configuration; HEK293T cells; EPO; dose-response; IKZF1 isoform 7", "text": "as §1, §2"}}, "note": "Entries after “also recorded” stand apart in the source; their conditions may differ.", "data": [{"compound": "O=C1CC[C@H](N2Cc3c(OCc4ccc(CN5CCOCC5)cc4)cccc3C2=O)C(=O)N1", "note": "[CC-220]", "values": [{"measurement": "induction of fluorescence reporter signal in ORF cDNA cell microarray screen", "setting": "[1]; CC-220 1 μM final concentration, over 15,000 ORFs, erythropoietin", "value": "a significant induction of signal is observed for a number of ORF cDNAs"}, {"measurement": "dose-response confirmation of binding of three ORF hits to CRBN", "setting": "[1]; inverse MAPPIT luciferase assay, EPO", "value": "dose-dependent binding to CRBN"}, {"measurement": "compound-induced binding of IKZF2 to CRBN (luciferase reporter signal)", "setting": "CRBN-IKZF2 interaction", "value": "an interaction signal response could be detected"}, {"measurement": "compound-induced binding of SALL4 to CRBN (luciferase reporter signal)", "setting": "CRBN-SALL4 interaction [2]", "value": "an interaction signal response could be detected"}, {"measurement": "compound-induced binding of CSNK1A (CK1a) to CRBN (luciferase reporter signal)", "setting": "[3]", "value": "an interaction signal response could be detected; also recorded: specific signal in the inverse"}, {"measurement": "compound-induced binding of ZFP91 to CRBN (luciferase reporter signal)", "setting": "CRBN-ZFP91 interaction [4]", "value": "an interaction signal response could be detected"}, {"measurement": "compound-induced binding of SALL4 to CRBN (luciferase reporter signal)", "setting": "CRBN-SALL4 interaction [5]", "value": "only in the inverse assay setup an interaction signal response could be detected"}, {"measurement": "compound-induced binding of ZFP91 to CRBN (luciferase reporter signal)", "setting": "CRBN-ZFP91 interaction [6]", "value": "only in the inverse assay setup an interaction signal response could be detected"}, {"measurement": "compound-induced binding of IKZF3 to CRBN (luciferase reporter signal)", "setting": "CRBN-IKZF3 interaction", "value": "an interaction signal response could be detected"}, {"measurement": "compound-induced binding of IKZF1 to CRBN (luciferase reporter signal)", "setting": "CRBN-IKZF1 interaction", "value": "can be detected with both the forward and the inverse assay configuration"}]}]}
